Experimental data reported in paper PMC12281487, “Discovery and Validation of a Novel Class of Necroptosis Inhibitors Targeting RIPK1” (ACS Chemical Biology, 2025).

Key:
RIPK1 = molecular target: T1, RIPK1 (Homo sapiens, UniProt Q13546); assay: Streptavidin mass shift assay (photoaffinity labeling, target engagement) in I2.1 cells; format: cell-based; conditions: competition assay, pretreatment before 7PQYnD photoaffinity labeling
T1 construct: Following incubation of I2.1 cells with the probe, irradiation to induce photocrosslinking; endogenous in cells; host or cells: I2.1 FADD-deficient Jurkat T cells (ATCC, CRL-2572)
T1 sequence (Q13546 1-671): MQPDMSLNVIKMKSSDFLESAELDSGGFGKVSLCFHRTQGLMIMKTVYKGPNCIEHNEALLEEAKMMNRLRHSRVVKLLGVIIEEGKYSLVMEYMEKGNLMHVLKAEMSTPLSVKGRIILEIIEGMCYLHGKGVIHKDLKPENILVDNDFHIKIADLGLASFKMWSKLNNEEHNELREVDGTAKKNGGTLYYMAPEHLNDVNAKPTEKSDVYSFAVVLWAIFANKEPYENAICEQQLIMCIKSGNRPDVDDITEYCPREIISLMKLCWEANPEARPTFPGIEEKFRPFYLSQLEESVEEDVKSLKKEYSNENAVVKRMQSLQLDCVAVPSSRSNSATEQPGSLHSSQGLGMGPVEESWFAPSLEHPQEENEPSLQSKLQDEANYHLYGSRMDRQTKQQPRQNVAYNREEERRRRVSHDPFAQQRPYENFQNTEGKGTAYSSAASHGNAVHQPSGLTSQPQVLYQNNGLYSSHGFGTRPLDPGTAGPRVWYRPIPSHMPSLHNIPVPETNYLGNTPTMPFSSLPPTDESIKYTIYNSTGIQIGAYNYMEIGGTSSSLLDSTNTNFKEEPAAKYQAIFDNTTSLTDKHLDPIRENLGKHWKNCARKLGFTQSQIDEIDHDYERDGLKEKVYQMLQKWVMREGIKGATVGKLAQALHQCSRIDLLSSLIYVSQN
Procedure: Target engagement was confirmed by Streptavidin mass shift assay, whereby lysates are incubated with streptavidin and subsequently separated by SDS–PAGE. The high stability of streptavidin at a range of temperatures, in various detergents and pH, in combination with the extremely high affinity for biotin means the streptavidin–biotin interaction is not separated during gel electrophoresis, resulting in a mass shift of biotin-labeled proteins in the presence of streptavidin, which can be visualized by Western blot (Figure a).
I2.1 cells were seeded in sterile six-well plates at a density of 2 × 10^6 cells per well and incubated at 37 °C overnight. 1000× stocks of the desired concentration of compound in DMSO were preprepared. […]
Cells were transferred to a microcentrifuge tube, centrifuged at 200g for 5 min, and media removed. […] Protein concentration was determined using the DC Protein Assay (Bio-Rad) in a 96-well plate as per the manufacturer’s instructions and the concentration adjusted to 1–2 mg mL^–1 using lysis buffer. […]
Samples were prepared by adding 4 μL of 4× loading buffer to 10 μL of the protein samples and boiling at 95 °C for 10 min. […] In-gel fluorescence was detected by using a Typhoon FLA 9500 biomolecular imager (750 V, 100 μm pixels). […]

recombinant hRIPK1 = molecular target: T2, recombinant hRIPK1 (Homo sapiens, UniProt Q13546); assay: ADP-Glo kinase assay; format: biochemical; conditions: for IC50: GST-RIPK1 75 nM
T2 construct: Th (between GST and residue 1); purchased BPS Bioscience 40371
T2 sequence (Q13546 1-327): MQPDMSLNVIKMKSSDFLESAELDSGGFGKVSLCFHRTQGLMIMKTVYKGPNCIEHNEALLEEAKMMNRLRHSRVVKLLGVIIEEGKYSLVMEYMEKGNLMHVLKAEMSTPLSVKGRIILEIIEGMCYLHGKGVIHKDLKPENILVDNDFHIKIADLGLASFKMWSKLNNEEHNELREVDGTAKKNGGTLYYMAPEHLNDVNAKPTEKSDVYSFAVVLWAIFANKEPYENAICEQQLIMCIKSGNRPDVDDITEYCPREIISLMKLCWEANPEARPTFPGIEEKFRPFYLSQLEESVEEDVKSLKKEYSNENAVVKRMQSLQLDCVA
Procedure: Compound potency and mode of inhibition against RIPK1 kinase activity were determined by using an ADP-Glo kinase assay (Promega). The assay was carried out in accordance with the manufacturer’s protocol. The initial kinase reaction was performed by incubating recombinant hRIPK1 (GST-Th-1-327 from BPS Bioscience ref 40371, 75 nM) with the inhibitor (0–100 μM) and ATP (0–500 μM) for 4 h at 24 °C in kinase assay buffer (50 mM HEPES pH 7.5, 50 mM NaCl, 30 mM MgCl2, 0.5 mg mL^–1 BSA, 0.02% CHAPS, and 4 mM DTT). Following this reaction, ADP-Glo Reagent and Kinase Detection Reagent were successively added and incubated for 1 and 0.5 h at 24 °C, respectively. A […] (kinase assay reaction/ADP-Glo Reagent/Kinase Detection Reagent) volume ratio of the kit’s components was used. Bioluminescence was measured on a Varioskan LUX multimode microplate reader with SkanIt Software. Experiments were conducted in triplicate. Concentration response curves and IC50 values were generated from nonlinear regression fits performed on GraphPad Prism 9.1.1. Additionally, the produced ADP concentration values were divided by the kinase reaction incubation time to calculate reaction velocity values and generate velocity curves. Velocity curves were fitted in Michaelis–Menten model on GraphPad Prism 9.1.1 to calculate the maximum velocity (v max) and Michaelis–Menten constant (K M) parameters.

kinase domain of RIPK1 = molecular target: T3, kinase domain of RIPK1 (Homo sapiens, UniProt Q13546); assay: SPR binding assay
T3 construct: recombinant human kinase domain of RIPK1 [RIPK1 (8-322)-Avi-His]; His (C); made in house; host or cells: Sf21 insect cells (baculovirus, Bac-to-Bac), co-expressed with Cdc37
T3 sequence (Q13546 8-322): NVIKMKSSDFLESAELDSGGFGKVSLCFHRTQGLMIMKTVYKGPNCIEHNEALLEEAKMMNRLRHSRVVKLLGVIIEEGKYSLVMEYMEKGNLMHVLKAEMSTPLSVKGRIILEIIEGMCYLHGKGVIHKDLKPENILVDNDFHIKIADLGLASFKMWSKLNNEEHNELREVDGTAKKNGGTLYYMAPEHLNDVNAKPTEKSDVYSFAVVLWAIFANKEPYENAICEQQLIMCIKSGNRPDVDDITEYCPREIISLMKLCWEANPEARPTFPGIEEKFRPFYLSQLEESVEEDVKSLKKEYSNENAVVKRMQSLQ
Procedure: Biotinylated recombinant human kinase domain of RIPK1 [RIPK1 (8-322)-Avi-His] was produced in Sf21 cells using baculovirus infection (Bac-to-Bac system, Thermo Fisher Scientific). Briefly, the RIPK1 (8-322)-Avi-His baculovirus was inoculated into Sf21 cells at 1.5 × 10^6 cells/mL, with 1 mL of virus added per 500 mL of cells for P2 virus generation. The cells were grown at 27 °C, 140 rpm for 72 h. RIPK1 was co-expressed with Cdc37 at a 4:1 (RIPK1/Cdc37) v/v virus ratio in Sf21 cells by inoculation with P2 virus (25 mL per 500 mL bottle). The cells were grown at 27 °C while shaking at 140 rpm for 48 h before being harvested by centrifugation at 6500 rpm and 4 °C for 15 min and stored at −80 °C before further purification. 25 μM of Nec-1s (ab221984, Abcam) was added to the culture medium at time of viral infection to stabilize protein.
Briefly, RIPK1 kinase domain was immobilized on a streptavidin-coated sensor chip (Cytiva). The surface was washed with 10 mM NaOH, 1 M NaCl, followed by immobilization of the protein. […] The reference spot was treated as described, omitting the injection of RIPK1. Compound concentration series was injected over the immobilized protein in increasing concentrations using multi cycle or single cycle kinetics in running buffer (10 mM HEPES, 150 mM NaCl, 0.05% Tween20, 0.1% DMSO, pH 7.4). A 1:1 Langmuir interaction model was fitted to the experimental traces, enabling determination of k on, k off, and K D.

[1] = test system: I2.1 FADD–/– human Jurkat cells; assay: IncuCyte necroptosis assay in I2.1 cells; conditions: Homo sapiens, Jurkat, read-out: EC50 (95% CI), necroptosis inhibition
Procedure: A cell-based assay was established to monitor necroptosis in I2.1 cells using the IncuCyte S3 live cell microscopy platform (Figure S1a). Necroptosis was induced by treatment with TNF, and Sytox Green was used to monitor membrane permeabilization over time as an indicator of progressive necroptotic cell death (Figure S1b–d), allowing determination of the EC50 of candidate necroptosis inhibitors.
I2.1 cells were seeded in a sterile 96-well plate (Greiner) at 20,000 cells per well and incubated at 37 °C overnight. The cells were treated with a final concentration of 600 pM TNF, 1 μM Sytox Green, and compounds in a dose-dependent manner. Wells containing TNF and Sytox Green served as positive control. Wells containing DMSO and Sytox Green served as a negative control. The plate was placed into an IncuCyte S3 Live Cell Analysis System (Sartorius) and readings for phase and green fluorescence were taken every hour for 24 h, with 4 images per well. The images were analyzed with IncuCyte 2021C software and the Green Integrated Intensity Per Image/Phase Area Per Image (GCU × μm^2/image/μm^2/image or GP) was exported. The background at t = 0 h was subtracted, and the linear slope (t = 3–7 h) was calculated by plotting GP against time. The percent inhibition of necroptosis was determined by normalizing to the positive and negative controls and graphing against the [compound]. EC50 values were determined using Prism 10 for each replicate, which were then used to calculate the geometric mean EC50 and associated 95% CIs.
I2.1 cells in a 96-well plate were treated with TNF to induce necroptosis, a dilution series of the candidate necroptosis inhibitor and Sytox Green to monitor cell death. Plates were placed in the IncuCyte® and imaged every hour for 24 h. Cell death was measured over time and used to determine the proportion of necroptotic cells compared to those without necroptosis induction or not treated with an inhibitor. The linear portion of the graph was used to determine an initial rate for calculation of the EC50. TNF with Sytox Green and Sytox Green alone were used as positive and negative controls, respectively. […] EC50 values are expressed as the geometric mean with a 95% confidence interval (CI) of at least three biological replicates.

In the case of CN1C(=O)C(Cc2c[nH]c3ccccc23)NC1=S (centres unmarked) [Nec-1, Necrostatin 1], the “7PQYnD-mediated RIPK1 streptavidin band shift after pretreatment with competitor” value (RIPK1) is reported as “retained”, the IC50 (recombinant hRIPK1; ATP concentration 10 μM) is reported as 2700 nM and the IC50 (recombinant hRIPK1; ATP concentration 500 μM) is reported as 8100 nM. For the same compound, the “mode of inhibition with respect to ATP” value (recombinant hRIPK1; ATP concentrations 10–500 μM) was “competition with ATP”, the koff (kinase domain of RIPK1; 1:1 fitting, 20 °C) was 0.011 ± 0.002 s⁻¹ and the kon (kinase domain of RIPK1; 1:1 fitting, 20 °C) was 260000 M⁻¹ s⁻¹. The Kd (kinase domain of RIPK1; absence of Nec-1, read-out: Binding affinity (pKD) (converted)) was 44.7 nM and the EC50 [1] was 750 nM.
